The record followed here is ChEMBL document CHEMBL4813957, “Antitubercular properties of thiazolidin-4-ones - A review” (Eur J Med Chem, 2021).

Converted amounts (≈) assume the structure as drawn.

Common to all, as to assay type: functional
For assay [1], the system named is Mycobacterium tuberculosis variant bovis BCG. Description: Antimycobacterial activity against Mycobacterium bovis BCG ATCC 35734 measured on 12th day by nitrate reductase assay. As to conditions: ATCC 35734, 288 h, time 12 day.
In assay [2] the test system is Mycobacterium tuberculosis. Description: Antimycobacterial activity against extensively drug resistant Mycobacterium tuberculosis measured up to 2 weeks. Conditions: 336 h, time weeks <=2.
In assay [3] the test system is Mycobacterium tuberculosis. Description: Antimycobacterial activity against multidrug resistant Mycobacterium tuberculosis measured up to 2 weeks. Conditions: 336 h, time weeks <=2.
The subject of assay [4] is Mycobacterium tuberculosis. Put plainly: Antimycobacterial activity against ethambutol/pyrazinamide/kanamycin/streptomycin/ofloxacin/moxifloxacin/levofloxacin resistant Mycobacterium tuberculosis measured up to 2 weeks. Conditions: 336 h, time weeks <=2.
Assay [5] deals with Mycobacterium tuberculosis variant bovis BCG. Description: Antimycobacterial activity against Mycobacterium bovis BCG ATCC35743 by nitrate reductase assay.

For `O=C1CSC(c2ccc(OCc3cc4ccccc4n4nnnc34)cc2)N1c1ccccc1` (stereo not drawn), the MIC (usually the least concentration at which growth counts as inhibited) in assay [1] came out at 9.13 µg/mL (≈ 20.1 µM).

The molecule `CCOc1ccc(N2C(=O)CSC2c2ccc(OCc3cc4ccccc4n4nnnc34)cc2)cc1` (stereo not drawn) yielded an MIC in assay [1] of 7.09 µg/mL (≈ 14.2 µM).

Consider `O=C(O)CCCCCC1NC(=O)CS1` (stereo not drawn), for which the values for the MIC in assay [2], in assay [3] and in assay [4] were 0.096 µM (≈ 0.0209 µg/mL), 0.6 µM (≈ 0.13 µg/mL) and 0.2 µM (≈ 0.0435 µg/mL), respectively.

Molecule `O=C1CSC(c2ccc(OCc3cc4ccccc4n4nnnc34)cc2)N1c1ccc([N+](=O)[O-])cc1` (stereo not drawn) had an MIC in assay [1] of 3.8 µg/mL (≈ 7.62 µM).

In the case of `O=C1NC(=S)S/C1=C\c1ccc([N+](=O)[O-])cc1`, it took 25.7 µg/mL (≈ 96.5 µM) to reach the 90% level in assay [5] (IC90).

Consider `NC(=O)c1cnccn1` [PYRAZINAMIDE], for which the MIC in assay [1] was 20 µg/mL (≈ 162 µM).
